According to patent US8859628B2, “Method for preventing, treating and diagnosing disorders of protein aggregation” (priority 2003, dated 2014):
“Also recorded” adds a separate entry of the source.

Tests used:
TgCRND8 mice [1] = test: Morris Water Maze, spatial reference memory version, five-day trial paradigm (prevention study); assay type: in vivo, mouse; conditions: 6 months of age
Method: Age and sex-matched cohorts of TgCRND8 mice and non-transgenic littermates (n=35 in each cohort) were either untreated, or were given a compound of the present invention as indicated below at 30 mg/day/mouse beginning at age of about 6 weeks. The mice were followed for outcome measures cognitive function, brain Aβ levels, brain pathology, and survival at 4 months and 6 months of age.
Two cohorts entered the study at 6 weeks of age and outcomes were analyzed at 4- and 6-months of age. The body weight, coat characteristics and in cage behavior was monitored. All experiments were performed according to the Canadian Council on Animal Care guidelines.
Behavioral tests—After non-spatial pre-training, mice underwent place discrimination training for 5 days with 4 trials per day. Behavioral data was analyzed using a mixed model of factorial analysis of variance (ANOVA) with drug or genotype and training sessions as repeated measure factors.
The cognitive function of TgCRND8 mice was assessed using the spatial reference memory version of the Morris Water Maze using a five-day trial paradigm (FIGS. 1C-1H). […] The improved performance was also not due to nutritional or caloric effects because body weight, activity, and coat condition were not different between treated and untreated cohorts. […] Gender effects were not significant between any treatment group (p=0.85).

TgCRND8 mice [2] = test: Survival census (Kaplan-Meier); assay type: in vivo, mouse; conditions: at 175 days; n=35 per group
Method: Survival Census—The probability of survival was assessed by the Kaplan-Meier technique, computing the probability of survival at every occurrence of death, thus making it suitable for small sample sizes. For the analyses of survival, 35 mice were used for each treatment group. The comparison between treatments was reported using the Tarone-Ware test.

O[C@H]1[C@H](O)[C@@H](O)[C@H](O)[C@@H](O)[C@@H]1O [Scyllo-Inositol, scyllo-inositol]
cognitive function, treated TgCRND8 mice vs non-Tg littermates (words) (TgCRND8 mice [1]): indistinguishable from non-Tg littermates on all days; also recorded: approached that of non-Tg littermates | cognitive function, treated vs untreated TgCRND8 mice (words) (TgCRND8 mice [1]): performed significantly better than untreated TgCRND8 mice | survival (TgCRND8 mice [2]): 72%
